# In PMC6566782, “Prodrugs for Skin Delivery of Menahydroquinone-4, an Active Form of Vitamin K2(20), Could Overcome the Photoinstability and Phototoxicity of Vitamin K2(20)” (International Journal of Molecular Sciences, 2019):
# Tests used:
# [1] = Singlet oxygen generation assay (p-nitrosodimethylaniline-based ROS assay) after UVA irradiation; type: physicochemical; conditions: phosphate-buffered aqueous solution pH 7.4, UVA irradiation 0–15 J/cm^2
# Procedure: It has been reported that singlet oxygen promotes the peroxidation of skin surface lipids, resulting in the induction of skin inflammation. Thus, we measured the irradiation intensity-dependent generation of singlet oxygen by MK-4, MKH-DMG, and MKH-SUC in phosphate-buffered aqueous solution after UVA irradiation using a p-nitrosodimethylaniline-based ROS assay (Figure 4).
# MK-4 and MKH derivatives were dissolved in a phosphate buffer (NaPB, pH 7.4) containing 0.2% polyoxyethylene hydrogenated castor oil 40 (HCO 40, obtained as a gift sample from Nikko Chemicals Co., Ltd., Osaka, Japan), 2% dimethyl sulfoxide, and 0.1% glycerol. The solutions were treated according to the singlet oxygen assay method (The Japanese Center for the Validation of Alternative Methods, JaCVAM) and irradiated with UVA light from a CL-1000L UV Crosslinker (UVP, Upland, CA, USA). Absorbance was measured using an Infinite M200 PRO (Tecan Life Sciences, Zurich, Switzerland).
# [2] = system: HaCaT cells; assay: Intracellular MKO and MK-4 levels after treatment with MK-4 and MKH derivatives (MKH delivery), LC-MS/MS; type: cell-based, Human; conditions: 5 µM compound, intracellular MK-4, mean ± SD (n = 3)
# Procedure: The potential of MKH derivatives and MK-4 as dermal delivery systems of MKH were assessed by measuring intracellular MKH levels. However, accurate measurement of MKH is difficult because MKH is readily oxidized to MK-4. […] Thus, MKO levels in HaCaT cells can reflect the amount of MKH delivered into the cell and subsequently converted in the carboxylation of VKDP. In addition, MK-4 level in cells after MKH prodrugs treatment indicates the oxidative product of MKH. In this study, the intracellular concentration of MKO and MK-4 in HaCaT cells over time after treatment with MK-4, MKH-DMG, or MKH-SUC (5 μM) was determined by LC-MS/MS (Figure 7). HaCaT cells were seeded at 5.0 × 10^4 cells/well in 24-well plates and allowed to attach for 48 h. Cells were cultured in medium containing 5 μM MK-4, MKH-DMG, or MKH-SUC, then medium was removed and cells were washed twice with PBS. Cells were collected in 500 μL of PBS and sonicated. Cell homogenates were combined with an equal volume of methanol and three times volume of n-hexane, vortexed for 2 min, and centrifuged at 1750× g for 10 min. […] The residue was reconstituted with 20 μL of methanol, and subjected to LC-MS/MS, as described below. The protein concentration of the cell homogenate was determined using a BCA protein assay kit (Thermo Fisher Scientific, Waltham, MA, USA). […]
# [3] = Photostability in ethanol under artificial sunlight (12,000 lx), LC-MS/MS; type: physicochemical; conditions: 1 µM in ethanol
# Procedure: The relative irradiance of artificial sunlight at wavelengths of 300 to 800 nm is almost equal to that of natural sunlight, according to the manufacturer. […] MKH-SUC concentration decreased according to an apparent first order rate both with and without shading, although the rate of decrease was accelerated without shading. MKH-DMG and MKH-SUC were more photostable than MK-4 by ca. 50- and 3-fold, respectively.
# Solutions of MK-4 and MKH derivatives in ethanol (1 µM) were irradiated with artificial sunlight (SOLAX 100 W XC-100 B, Seric Ltd., Tokyo, Japan) at 12,000 lx in quartz cells. Illuminance was measured using a digital luminometer (LX-1108, Mother Tool). Irradiation samples (1 µM in ethanol) were irradiated with artificial sunlight at 12,000 lx, and with monochromatic light (279, 341, 373, 404, and 435 nm) using a multi-wavelength irradiation spectrometer (MM 3, Bunkoukeiki Co., Ltd., Tokyo, Japan). Irradiation intensity was measured using an irradiation energy measurement power meter (MM 3, Bunkoukeiki Co., Ltd.).
# LC-MS/MS was performed using an LCMS-8050 Liquid Chromatograph Mass Spectrometer (Shimadzu, Kyoto, Japan) and Shimadzu HPLC System (system controller (CBM-20A), pump (LD-20AD), degasser (DGU-20As), UV detector (SPD-20A), and auto injector (SIL-20AC HT)). Separations were performed on a CAPCELL PAK C18 UG120 (3 μm, 2.0 mm × 100 mm, Shiseido Co., Ltd., Tokyo, Japan) using a mobile phase of 10 mmol/L ammonium acetate and 0.1% acetic acid in methanol and water (97:3) at a flow rate of 0.4 mL/min. Column temperature was maintained at 40 °C. The mass spectrometer was equipped with an electrospray ionization and was run in positive ion mode. Identification and quantitation were based on MS/MS-multiple reaction monitoring mode using transition ions as follows: m/z 445 → 187 for the [M+H]^+ MK-4 adduct, m/z 445 → 187 for the [M + H]^+ chromenol adduct, 619 → 58 for the [M + H]^+ MKH-DMG adduct, m/z 532 → 58 for the [M + H]^+ MKH-mono-DMG adduct, m/z 664 → 187 for the [M + H]^+ MKH-SUC adduct, m/z 564 → 187 for the [M + H]^+ MKH-mono-SUC adduct, and m/z 461 → 81 for the [M + H]^+ MKO adduct.
structure (smiles),measurement,setting,value
"CC(C)=CCC/C(C)=C/CC/C(C)=C/CC/C(C)=C/CC1=C(C)C(=O)c2ccccc2C1=O [MK-4, menaquinone-4, reference compound]",singlet oxygen generation,[1],increased formation of singlet oxygen in an irradiation energy-dependent manner
same,AUCMK-4 (0–72 h),[2],5.628 ± 0.698 nmol·h/mg of Protein
same,apparent first order rate constant (k) of degradation,"[3]; artificial sunlight 12,000 lx, 25 °C",8.239 h⁻¹
same,concentration change under shading,"[3]; shading, 25 °C",unchanged under shading
same,main degradation product,[3]; sunlight irradiation (MKH-SUC also under shading),MK-4 chromenol
same,half-life at 1 µM,"[3]; ethanol solution in quartz cells, artificial sunlight 12,000 lx, 25 °C, read-out: half-life (t1/2) of degradation (converted)",5.04 min
